# PubChem BioAssay (NCI)
#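 Method: 48-hour compound exposure of cells in 96-well plates, five concentrations, linear interpolation of endpoints. GI50: concentration for 50% inhibition of growth. At the TGI there is no net growth.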
# Key:
# Test in all cases: growth of human tumour cells (NCI), 48 h
# U251 CNS = system: U251 CNS
# OVCAR-4 ovarian = system: OVCAR-4 ovarian
# SK-MEL-28 melanoma = system: SK-MEL-28 melanoma
# SK-OV-3 ovarian = system: SK-OV-3 ovarian
# OVCAR-3 ovarian = system: OVCAR-3 ovarian
# LOX IMVI melanoma = system: LOX IMVI melanoma
# 786-0 renal = system: 786-0 renal
# SK-MEL-5 melanoma = system: SK-MEL-5 melanoma
# BT-549 breast = system: BT-549 breast
# DU-145 prostate = system: DU-145 prostate
Compound,TGI (U251 CNS) [µM],TGI (OVCAR-4 ovarian) [µM],TGI (SK-MEL-28 melanoma) [µM],TGI (SK-OV-3 ovarian) [µM],TGI (OVCAR-3 ovarian) [µM],TGI (LOX IMVI melanoma) [µM],TGI (786-0 renal) [µM],TGI (SK-MEL-5 melanoma) [µM],GI50 (U251 CNS) [nM],GI50 (BT-549 breast) [µM],TGI (BT-549 breast) [µM],GI50 (SK-MEL-28 melanoma) [µM],GI50 (DU-145 prostate) [µM],TGI (DU-145 prostate) [µM],GI50 (SK-OV-3 ovarian) [µM],GI50 (OVCAR-3 ovarian) [nM],GI50 (SK-MEL-5 melanoma) [nM],GI50 (LOX IMVI melanoma) [nM],GI50 (786-0 renal) [µM],GI50 (OVCAR-4 ovarian) [µM]
CC1C[C@H](C)CC(C(O)CC2CC(=O)N(Cc3ccccc3)C(=O)C2)C1O (stereo partly drawn),> 100,> 100,> 100,> 100,> 100,> 100,> 100,–,–,–,–,–,–,–,–,–,–,–,–,–
CC(/C(=N\Nc1ccccc1)c1ccc(O)cc1)C1C(=O)Oc2ccccc21 (stereo not drawn),> 100,> 100,–,–,> 100,> 100,> 100,> 100,–,–,–,–,–,–,–,–,–,–,–,–
NS(=O)(=O)c1ccc(NC2=CC(=O)C(=O)c3ccccc32)cc1,> 100,> 100,> 100,> 100,> 100,> 100,> 100,> 100,–,–,–,–,–,–,–,–,–,–,–,–
N#Cc1c2c(c(N=P(c3ccccc3)(c3ccccc3)c3ccccc3)n3c1nc1ccccc13)CCCC2,77.9,> 100,> 100,> 100,86.1,76.3,> 100,27.3,–,–,–,–,–,–,–,–,–,–,–,–
COc1ccc2c(c1)[n+](=O)c(C(=O)c1ccco1)c(C(F)(F)F)n2[O-],8.67,–,94.9,25.9,11.5,3.59,54.1,2.68,2040,2.64,18.9,12.3,2.12,14.5,3.15,1540,1310,1190,3.83,–
CN(Cc1cc(Br)cc(Br)c1O)Cc1cc(Br)cc(Br)c1O,13.3,18.9,24.6,–,11.2,17.4,14.6,3.71,689,–,–,10.9,5.48,22.2,–,1420,1340,1140,1.42,1.79
COc1ccc(C2CC(c3cc(C)ccc3O)=NC(N)=N2)cc1 (stereo not drawn),> 100,> 100,> 100,> 100,> 100,> 100,> 100,–,–,–,–,–,–,–,–,–,–,–,–,–
COc1ccc(C(=O)c2cc(OC)c(OC)c(OC)c2)cc1/C=C/C(=O)c1ccc(OC)c(OC)c1,–,> 100,> 100,> 100,–,4.75,> 100,–,–,–,–,4.59,2.21,> 100,5.76,–,–,559,4.71,1.95
Cc1ccc2ncnc(N(CC(C)C)CC(C)C)c2c1,33.3,52.6,42.6,29.7,31.5,34.4,40,25.6,16500,–,–,19.9,15.5,32.4,14.2,16300,6900,16200,18.5,19
CC1SC2=NC3=C(c4ccccc4C3=O)C(c3ccc(Cl)cc3)N2C1=O (stereo not drawn),> 100,> 100,> 100,> 100,> 100,–,> 100,> 100,–,–,–,–,–,–,–,–,–,–,–,–
C=C(C)[C@@H]1CC[C@]2(C(=O)O)CC[C@]3(C)[C@H](CC[C@@H]4[C@@]5(C)C[C@@H](CC#Cc6ccc(C(F)(F)F)cc6)[C@H](O)C(C)(C)[C@@H]5CC[C@]43C)[C@@H]12,4.75,–,–,–,–,–,21.9,> 100,1980,10.9,> 100,–,3.52,> 100,–,–,8970,–,3.2,–
Cc1cccc2c1N(C(=O)/C=C\C(=O)O)C(c1c(C)[nH]c3ccccc13)C2 (stereo not drawn),> 10,> 100,53.3,> 100,> 10,–,> 100,32.8,–,–,–,–,–,–,–,–,–,–,–,–
O=C1CCC2CC(C(=O)c3ccccc3)CCC2CN1 (stereo not drawn) (tested in a mixture with another compound),> 100,> 100,> 100,> 100,> 100,–,> 100,> 100,–,–,–,–,–,–,–,–,–,–,–,–
COc1cc(OC)c(/C=C\c2ccnc3ccccc23)c(OC)c1,15.2,16.5,17.9,20.5,12.8,13.6,17.8,5.88,–,–,–,–,–,17.2,–,–,–,–,–,–
CCOC(=O)C1C2CCC(C2)C1(CCl)C(=O)OCC (stereo not drawn),> 100,> 100,> 100,> 100,> 100,> 100,> 100,> 100,–,–,–,–,–,–,–,–,–,–,–,–
CCOC(=O)CSC(=O)NCCCl,> 100,> 100,> 100,> 100,> 100,–,> 100,–,–,–,–,–,–,–,–,–,–,–,–,–
COC(=O)C(=O)C(C(=O)C(=O)Nc1nc2ccc(C)cc2s1)c1nc2ccc([N+](=O)[O-])cc2[nH]c1=O (stereo not drawn),> 100,–,> 100,> 100,> 100,> 100,> 100,> 100,–,–,> 100,–,–,–,–,–,–,–,–,–
O=C(CN(/C=C/C(=O)C(F)(F)F)c1ccc(Cl)cc1)c1ccccc1,30.8,–,37.5,> 100,46.3,22.3,31.3,27.7,15800,20.5,41.4,17.3,18,43.4,51.2,9150,12100,5260,13.5,–
COC(=O)C(CC(C)C)NC(=O)NC12CC3CC(CC(F)(C3)C1)C2 (stereo not drawn),> 100,–,> 100,> 100,> 100,> 100,> 100,> 100,–,–,–,–,–,–,–,–,–,–,–,–
O=C1c2ccccc2C(=O)N1CCN(CCN1C(=O)c2ccccc2C1=O)Cn1cccn1,> 100,> 100,> 100,> 100,> 100,> 100,> 100,> 100,–,–,–,–,–,–,–,–,–,–,–,–
CNCc1cc(OC)ccc1-c1ccc(OC)c(OC)c1OC,> 100,> 100,> 100,> 100,> 100,> 100,> 100,> 100,–,–,–,–,–,–,–,–,–,–,–,–

Compound,TGI (U251 CNS) [µM],TGI (OVCAR-4 ovarian) [µM],TGI (SK-MEL-28 melanoma) [µM],TGI (SK-OV-3 ovarian) [µM],TGI (OVCAR-3 ovarian) [µM],TGI (LOX IMVI melanoma) [µM],TGI (786-0 renal) [µM],TGI (SK-MEL-5 melanoma) [µM],GI50 (U251 CNS) [nM],GI50 (BT-549 breast) [µM],TGI (BT-549 breast) [µM],GI50 (SK-MEL-28 melanoma) [µM],GI50 (DU-145 prostate) [µM],TGI (DU-145 prostate) [µM],GI50 (SK-OV-3 ovarian) [µM],GI50 (OVCAR-3 ovarian) [nM],GI50 (SK-MEL-5 melanoma) [nM],GI50 (LOX IMVI melanoma) [nM],GI50 (786-0 renal) [µM],GI50 (OVCAR-4 ovarian) [µM]
CC[P+](C)(C)c1ccccc1,> 100,> 100,> 100,> 100,> 100,> 100,> 100,> 100,–,–,–,–,–,–,–,–,–,–,–,–
N/N=C(\C(=O)Nc1ccc(Cl)cc1Cl)C(c1cnc2ccccc2n1)[N+](=O)[O-] (stereo not drawn),> 100,> 100,> 100,> 100,> 100,> 100,> 100,> 100,–,–,> 100,–,–,–,–,–,–,–,–,–
Cc1ccc(NC(=O)C(=O)C(C#N)c2nc(-c3ccc(-c4ccccc4)cc3)cs2)c(C)c1 (stereo not drawn),> 100,> 100,> 100,> 100,> 100,> 100,> 100,> 100,–,–,–,–,–,–,–,–,–,–,–,–
COC(=O)C(C(=O)C(=O)Nc1nc(=S)[nH][nH]1)c1csc(-n2nc(-c3ccccc3)cc2-c2ccccc2)n1 (stereo not drawn),> 100,> 100,–,> 100,> 100,> 100,> 100,–,–,–,–,–,–,–,–,–,–,–,–,–
NNC(=O)CNC(=O)c1ccc(Cl)cc1Cl,> 100,> 100,> 100,> 100,> 100,–,> 100,> 100,–,–,–,–,–,–,–,–,–,–,–,–
O=C(c1ccccc1)[C@H]1Nc2ccc(Cl)cc2C2c3ccccc3CC21 (stereo partly drawn),> 100,50.9,97,–,66.1,> 100,> 100,85.2,–,–,–,–,–,–,–,–,–,–,–,–
CCOC(=O)c1c(C)n2c(=O)cc(C)c3c(O)c(O)cc1c32,30.5,> 100,> 100,–,9.94,30.5,> 100,24.1,4680,15.9,79.7,27.2,29.1,> 100,–,1420,4670,3980,8.83,4.53
O=C1c2nsnc2C(=O)c2c(F)c(F)c(F)c(F)c21,2.94,–,1.76,3.7,–,1.83,3.01,2.52,1380,1.49,2.83,0.594,1.32,2.63,2.04,–,1240,494,1.63,–
CCCCCCCCOCC(O)COC(=O)CCCCCCC (stereo not drawn),> 100,> 100,> 100,> 100,64.8,> 100,> 100,> 100,–,–,–,–,–,–,–,–,–,–,–,–
COc1ccc2c(CN3CCC(C(=O)O)CC3)cc3cc4c(cc3c2c1)OCO4,> 100,> 100,6.02,–,9.64,9.37,14.2,3.14,2740,4.03,17.6,2.28,3.87,> 100,–,2850,1620,1900,2.41,4.15
Oc1ccc(O)c(-c2cn3ccsc3n2)c1,33.7,–,–,51.6,20.9,21.3,15,25.2,15800,5.61,21,–,–,–,19.1,7400,12700,5680,4.04,–
N#Cc1ccccc1NC(=O)C(=O)c1c(O)c2ccccc2oc1=O,> 100,> 100,> 100,> 100,> 100,> 100,> 100,> 100,–,–,> 100,–,–,–,–,–,–,–,–,–
O=C(c1ccccc1)N1C2CCC1C(C(F)(F)F)=C2C(F)(F)F,> 100,> 100,–,> 100,> 100,> 100,> 100,> 100,–,–,–,–,–,–,–,–,–,–,–,–
CCN1C(=O)N(CC)C2Nn3c(s/c(=C\c4ccccc4Br)c3=O)=NC21 (stereo not drawn),19.4,> 100,69.6,7.7,5.02,30.6,> 100,5.64,676,3.2,17.4,2.23,–,–,2.15,1050,1710,2430,3.18,2.29
CC(=O)c1ccc(OCC(O)CO)cc1 (stereo not drawn),> 100,> 100,> 100,> 100,> 100,–,76.2,> 100,–,–,–,–,–,–,–,–,–,–,–,–
NC(N)=N/N=C/c1c(-c2cc(Cl)sc2Cl)nc2sccn12,1.56,–,–,–,3.4,–,1.79,1.56,799,1.14,2.55,–,–,–,–,1270,729,–,0.924,–
O=C(O)C[C@H]1CCCCC12CCOC2=O (stereo partly drawn),> 100,> 100,> 100,> 100,> 100,> 100,> 100,> 100,–,–,–,–,–,–,–,–,–,–,–,–
Cl.Fc1c[c-]c(-c2ccccn2)c(F)c1.[Pt].c1ccc(P(c2ccccc2)C([PH+](c2ccccc2)c2ccccc2)[PH+](c2ccccc2)c2ccccc2)cc1,13.6,–,26.9,–,8.06,13.5,20.6,4.53,3230,3.24,17.1,5.02,3.57,20.1,–,2680,2080,3350,3.34,–
CC(=O)Nc1cc(N(CCOS(C)(=O)=O)CCOS(C)(=O)=O)ccc1N=O,> 100,> 100,> 100,–,> 100,–,> 100,> 100,–,–,–,–,–,–,–,–,–,–,–,–
COC(=O)/C(=N\Nc1nc(=S)[nH]n1N)C(C#N)c1ccccc1 (stereo not drawn),> 100,> 100,> 100,> 100,> 100,> 100,> 100,> 100,–,–,–,–,–,–,–,–,–,–,–,–
COc1c(C(=O)c2ccc([N+](=O)[O-])cc2)cc(C(C)(C)C)cc1C(C)(C)C,50.1,> 100,72.8,> 100,–,27.7,> 100,32.1,–,–,–,–,–,–,–,–,–,–,–,–
